Assay results from US4879277A, “Antiviral compositions and methods” (The United States of America as represented by the …, priority 1987, dated 1989).
Entries after “also recorded” stand apart in the source; their conditions may differ.

Columns and labels:
HIV-infected ATH8 cells = system: HIV-infected ATH8 cells
Procedure: (§1) Of critical importance to the biological activation of the 2',3'-dideoxycytidine analogues inside human cells, both as antiviral and as antitumor agents, is their anabolic conversion to nucleotides inside cells. This cannot be assumed to occur because not all nucleoside analgoues can be adequately phosphorylated. The ability of HIV-infected human T-lymphoblasts to phosphorylate 2',3'-dideoxycytidine nucleoside (ddCyd) was tested. […] The incubation was terminated after 24 hours of drug exposure, and the TCA-soluble fraction of the cell lysate was resolved on HPLC, utilizing a radial compression column of Partisil-10 SAX with a gradient of ammonium phosphate.

HIV [1] = assay: In vitro inhibition of the cytopathic effect of HIV in ATH8 cells; format: cell-based, human immunodeficiency virus
Excerpt: ATH8 cells (2×10^5) were pre-exposed to polybrene, and exposed to HIV in culture tubes (2,000 virus particles per cell), in the presence or absence of various concentrations of 2',3'-dideoxycytidine (ddC).
as §1

PBM + PWM = assay: In vitro immune reactivity of PBM stimulated with PWM (3H-uridine incorporation); format: cell-based, human; settings: 72 hours, control (None) 24 ± 1
Procedure: (§2) 5×10^4 normal helper/inducer TM3 cells were stimulated with tetanus toxoid (0.6 limiting flocculation units/ml) plus 10^5 irradiated (4,000 rad) autologous peripheral blood mononuclear cells (PBM) as a source of accessory cells, and were cultured for 72 hours in the presence or absence of ddC. After exposure to uCi ^3 H-uridine for the final 5 hours, cells were harvested onto glass fibers and the incorporated radioactivity was counted. Data are expressed as the arithmetic mean counts per minute (×10^3)±1 standard deviation triplicate determinations. 10^6 PBM from a healthy individual were stimulated with phytohaemagglutinin (PHA) or pokeweek mitogen (PWM) and cultured for 72 hours, and treated as described above. ^3 H-uridine incorporation was used as an indicator of activiation of the responder cells.

cytidine deaminase = assay: Sensitivity to cytidine deaminase; format: in vitro ADME
T cells = assay: Safety to T cells (studies of anabolic phosphorylation on human cells); format: cell-based; settings: comparable dosages
T4 cells [2] = assay: T4 cell number and T4/T8 ratio in AIDS patients receiving ddC; format: in vivo, human; settings: for T4/T8 Ratio, Start Treatment / T4/mm3, Start Treatment: start of treatment
Excerpt: (§3) The efficacy of the application of 2',3'-dideoxycytidine in human use is shown graphically in Table I, where the absolute number of T4 cells and the T4/T8 ratio both show an increase in the T cells, indicating improvements of the immune system in patients with AIDS and its related conditions following therapy. […] It has also been shown that the circulating p24 antigen-level (a measure of viral replication in a patient's body) falls, following treatment with these compositions.
*Patients 1 and 2 received one dose of ddC every 8 hours, and patient 3
received one dose every 4 hours. Patient 1 received intravenous (IV)
dosing throughout; patient 2 received IV dosing for 21 days, followed by
oral dosing; patient 3 received IV dosing throughout. IV dosing was given
as 1 hour infusions. For oral dosing, the ddC was administered dissolved
in 0.1 ml of 0.9% sodium chloride solution and approximately 100 ml of
orange juice. Each patient received a 1 hour intravenous infusion (test
dose) of ddC two days prior to the initiating of dosing.

[3] = system: Human T4^+ T lymphocytes (ATH8 cell line); assay: Anabolism of ddCyd by human T4+ T lymphocytes (intracellular concentration); format: in vitro ADME; settings: ATH8 cells exposed to 1 uM ddCyd for 24 hours
Procedure: * After incubation with ^3 Hlabelled 2',3dideoxycytidine (ddCyd) (1
exchange HPLC using radial compression columns of PartisilSAX equilibrate
phosphate, pH 3.8. ddCMP, 2',3dideoxycytidine-5monophosphate; ddCDP,

T4 cells [4] = assay: T4 cell number and T4/T8 ratio in AIDS patients receiving ddC; format: in vivo, human; settings: patient 2, 0.03 mg/kg every 8 hours, IV then oral, 19 days receiving ddC
PBM + PHA = assay: In vitro immune reactivity of PBM stimulated with PHA (3H-uridine incorporation); format: cell-based, human; settings: 72 hours, control (None) 82 ± 1
Procedure: as §2

HIV p24 antigen = assay: Circulating HIV p24 antigen level in patients; format: in vivo, human immunodeficiency virus; settings: following treatment
Excerpt: as §3
levels in the blood after one to two weeks of treatment.

HIV [5] = assay: In vitro inhibition of infectivity and replication of HIV (p24 gag expression in H9 cells); format: cell-based
Procedure: The in vitro inhibition of the infectivity and replication of the HIV virus by ddC was also tested. The results are shown in FIG. 4-B. In this test, 10^5 H9 cells were exposed to various concentrations of ddC for 4 hours, then to 2 ug/ml polybrene for 30 minutes, pelleted, and then exposed to HIV (3,000 virus particles/cell) for 1.5 hours. Cells were resuspended in fresh complete medium and cultured in tubes at 37° C. in 5% CO2 -containing humidified air, and under conditions in which the cells were continuously exposed to ddC. On days 8 (left), 9 (middle), and 10 (right) in culture, the percentage of the target H9 cells expressing p24 gag protein of HIV was determined by indirect immunofluorescence microscopy by using anti-HIV p24 murine monocolonal antibody.

normal lymphocytes = system: normal lymphocytes
Procedure: as §2

Clone TM 3 = assay: In vitro immune reactivity of normal helper/inducer TM3 cells (3H-uridine incorporation); format: cell-based, human; settings: 72 hours, tetanus toxoid, control (None) 12 ± 1
[6] = Toxicity observed in humans likely due to ddC administration; format: in vivo, human
Excerpt: Toxicity toward humans has been shown by the observation residing in Table II.
Toxicity Observed Which is
Likely to be Due to ddC Administration

[7] = AIDS patients, following therapy
[8] = patient 1, 0.25 mg/kg every 8 hours IV, 8 days receiving ddC
[9] = patient 1, 0.25 mg/kg every 8 hours IV
[10] = patient 2, 0.03 mg/kg every 8 hours, IV then oral
[11] = patient 3, 0.03 mg/kg every 4 hours IV, 12 days receiving ddC
[12] = patient 3, 0.03 mg/kg every 4 hours IV
[13] = Example 7, concentration (uM) figure not given
[14] = 0.03 mg/kg 3×/day intravenous for 12 days followed by 0.3 mg/kg 3×/day orally

SMILES: Nc1ccn([C@H]2C[C@H](O)[C@@H](CO)O2)c(=O)n1 [dCYD, reference compound]
- phosphorylation of ddCYD (HIV-infected ATH8 cells; dCYD (5 uM) added together with ddCYD): phosphorylation was blocked
- reversal of the anti-HIV effect of ddCyd (HIV [1]; dCYD with ddCyd): reverses the anti-HIV effect of ddCyd

SMILES: Nc1ccn([C@H]2CC[C@@H](CO)O2)c(=O)n1 [ddC, 2',3'-dideoxycytidine]
- mean counts per minute (×10^3) ± 1 standard deviation, 3H-uridine incorporation (PBM + PWM; 1 uM ddC): 23 ± 3 counts per minute (×10^3)
- mean counts per minute (×10^3) ± 1 standard deviation, 3H-uridine incorporation (PBM + PWM; 10 uM ddC): 15 ± 3 counts per minute (×10^3)
- sensitivity to cytidine deaminase (cytidine deaminase): not sensitive to cytidine deaminase
- safety to T cells (T cells): safe and non-lethal to T cells
- T4/T8 ratio (change) (T4 cells [2]; [7]): increase
- absolute number of T4 cells (T4 cells [2]; [7]): increase
- T4/T8 Ratio, End Treatment (T4 cells [2]; [8]): 0.40
- T/mm3, End Treatment (T4 cells [2]; [8]): 530 /mm3
- T4/T8 Ratio, Start Treatment (T4 cells [2]; [9]): 0.20
- T4/mm3, Start Treatment (T4 cells [2]; [9]): 309 /mm3
- T4/T8 Ratio, Start Treatment (T4 cells [2]; [10]): 0.39
- T4/mm3, Start Treatment (T4 cells [2]; [10]): 260 /mm3
- T4/T8 Ratio, End Treatment (T4 cells [2]; [11]): 0.51
- T/mm3, End Treatment (T4 cells [2]; [11]): 307 /mm3
- T4/T8 Ratio, Start Treatment (T4 cells [2]; [12]): 0.26
- T4/mm3, Start Treatment (T4 cells [2]; [12]): 246 /mm3
- Intracellular concentration of ddCDP [3]: 1.20 µM
- Intracellular concentration of ddCDPch [3]: 1.10 µM
- Intracellular concentration of ddCMP [3]: 2.10 µM
- Intracellular concentration of ddCTP [3]: 0.5 µM
- Intracellular concentration of ddCyd [3]: 6.40 µM
- difference between uninfected and HIV-infected ATH8 cells in ability to phosphorylate ddCYD (HIV-infected ATH8 cells): No significant qualitative or quantitative differences
- T4/T8 Ratio, End Treatment (T4 cells [4]): 0.47
- T/mm3, End Treatment (T4 cells [4]): 326 /mm3
- mean counts per minute (×10^3) ± 1 standard deviation, 3H-uridine incorporation (PBM + PHA; 1 uM ddC): 101 ± 1 counts per minute (×10^3)
- mean counts per minute (×10^3) ± 1 standard deviation, 3H-uridine incorporation (PBM + PHA; 10 uM ddC): 86 ± 3 counts per minute (×10^3)
- circulating p24 antigen-level (HIV p24 antigen): falls
- inhibition of the infectivity of the virus (HIV [5]; 1 uM ddCyd): 100%
- inhibition of the replication of the virus (HIV [5]; 1 uM ddCyd): 100%
- inhibition of the viral p24 expression (HIV [5]; [13]): virtually complete inhibition
- inhibition of the infectivity and replication of HIV (HIV [5]; H9 cells, p24 gag expression, days 8, 9, 10, 3,000 virus particles/cell, FIG. 4-B): almost complete inhibition
- harm to cells (normal lymphocytes): not harmed by drug concentrations that exceed the virustatic dose
- mean counts per minute (×10^3) ± 1 standard deviation, 3H-uridine incorporation (Clone TM 3; 1 uM ddC): 13 ± 1 counts per minute (×10^3)
- mean counts per minute (×10^3) ± 1 standard deviation, 3H-uridine incorporation (Clone TM 3; 10 uM ddC): 8 ± 1 counts per minute (×10^3)
- inhibition of the cytopathic effect of the virus (HIV [1]; 1 uM ddCyd): 100%
- inhibition of the cytopathic effect of HIV (HIV [1]; ATH8 cells, day 5, 2,000 virus particles per cell, FIG. 4-A): almost complete inhibition
- inhibition of the cytopathic effect of HIV (HIV [1]; [13]): virtually complete inhibition
- Tolerated for up to, without significant toxicity in some patients [6, 14]: up to 40 days
- minor toxicity in one patient [6, 14]: skin rash and oral ulcers
- Tolerated for up to, without significant toxicity ([6]; 0.03 mg/kg 6×/day intravenous for 14 days, followed by 0.03 mg/kg 6×/day orally): up to 18 days
- Toxicity ([6]; 0.25 mg/kg 3×/day intravenous): Thrombocytopenia; also recorded: skin rash
- platelets, before drop ([6]; 0.25 mg/kg 3×/day intravenous, dropped from): 234,000 /mm^3
- platelets, after drop ([6]; 0.25 mg/kg 3×/day intravenous, dropped to): 68,000 /mm^3
- minor toxicities ([6]; humans): skin rash and aphthous stomatitis
- toxic effect in humans ([6]; humans): bone marrow suppression (decreased platelets)
- toxicity in some patients with prolonged administration ([6]; some patients, prolonged administration): small fiber peripheral neuropathy
